Where a name gives a salt, the structure may show the parent alone. Read-outs that look alike come from different tables or passages of the source.

In patent publication US20030153590A1, “Method of treating alcoholism or alcohol abuse” (OY CONTRAL PHARMA LTD, priority 2001, published 2003) one finds solubility and Solubility in water data, which are given here for 1 compound.

The nature of series [1]: Solubility of nalmefene HCl in water as a function of pH. As to conditions: aqueous buffer, read-out: Matematically determined solubility in water. It is filed as physicochemical. How it is done: Cs is the water solubility of nalmefene.
Because the water solubility of nalmefene was not available in the literature for all the pH values used in the permeation study, the solubilities at pH values 6.5, 7.0, 7.5, and 8.0 were determined matematically from a diagram that described the logarithm of the solubility listed on Table 5 as a function of pH (Cs,pH).

The conditions of series [2]: cited from earlier work.

What is called solubility is the concentration that dissolves in the medium under given conditions. Regarding `C=C1CC[C@@]2(O)[C@H]3Cc4ccc(O)c5c4[C@@]2(CCN3CC2CC2)[C@H]1O5` [Nalmefene HCl], the solubility in series [1] (pH 6.5, from diagram of log solubility of Table 5 vs pH) is 112 mg/mL; in series [1] (pH 7.0, from diagram of log solubility of Table 5 vs pH), 88.6 mg/mL; in series [1] (pH 7.5, from diagram of log solubility of Table 5 vs pH), 31.9 mg/mL; in series [1] (pH 8.0, from diagram of log solubility of Table 5 vs pH) it was 0.44 mg/mL. Besides, the Solubility in water in series [2] (pH 2.25) was 128 mg/mL; in series [2] (pH 5.71) it was 131 mg/mL; in series [2] (pH 6.115), 133 mg/mL; in series [2] (pH 6.25), 124 mg/mL; in series [2] (pH 7.85), 1.09 mg/mL; in series [2] (pH 8.5) it was 0.180 mg/mL. The values for the Solubility in water in series [2] (pH 9.15) and in series [2] (pH 10.4) were 0.090 mg/mL and 0.230 mg/mL, respectively.
